# Tests used:
# [1] = system: M(IL-4) polarization of BMDMs; test: Flow cytometry of IL-4-associated cell surface markers in BMDMs; format: cell-based, mouse
# Description: (§1) For all gene expression and flow cytometry experiments described below, day 6 BMDM were plated at 3×10^5 cell/well in 12-well plates. The next day, cells were treated with appropriate compounds (and duration as indicated in figures and below) in DMEM supplemented with 5% FBS, 2 mM L-glutamine, 100 units/mL, 100 μg/mL penicillin/streptomycin, 500 μM of sodium pyruvate and 5% v/v conditioned media containing macrophage colony stimulating factor (M-CSF).
# (§2) For flow cytometry experiments involving etomoxir (FIG. 1G, FIG. 2A, FIG. 2D, FIG. 3A, FIG. 3B, FIG. 3G, FIG. 3H): BMDMs were mock-treated (media replacement only) or treated with 20 ng/mL of IL-4±3 μM or 200 μM of etomoxir for 48 hr. When measuring expression of M(IL-4)-associated genes in response to etomoxir (FIG. 1H, FIG. 2B), BMDMs were mock-treated or treated with 20 ng/mL of IL4±etomoxir as indicated for 24 hr.
# (§3) For experiments involving respiratory chain inhibitors: BMDMs were mock-treated (media replacement only) or treated with 20 ng/mL of IL4±1.2 μM oligomycin (Oligo), 200 nM rotenone (Rot), 200 nM antimycin A (AntiA), 100 nM piericidin A (PierA), or 5 μM carboxyatractylate (CAT) for either 24 (FIG. 4G, FIG. 4H, FIG. 6G) or 48 hr (FIG. 4F, FIG. 7D). All inhibitors were given as co-treatments simultaneously with IL-4.
# For experiments involving CoA supplementation (FIG. 10A, FIG. 10B, FIG. 10C, FIG. 10D, FIG. 10E, FIG. 9C, FIG. 9D): BMDMs were mock-treated (media replacement only) or treated with 20 ng/mL of IL4±etomoxir (concentration indicated in figures)±CoA (concentration indicated in figures) for 48 hr. Etomoxir and CoA were given as co-treatments simultaneously with IL-4.
# Prior to FACS analysis, BMDMs were detached using 350 μL of Accutase, followed by two washes with FACS buffer (PBS+1% (v/v) BSA+0.05% (w/v) sodium azide). Anti-mouse CD16/32 antibody was used at a dilution of 1:500, while all other antibodies were used at a dilution of 1:250. All flow cytometry data were captured using BD FACSVerse flow cytometer and analyzed using the FlowJo X 10.0.7r2 software. In all, 2×104 live events were acquired for each sample (gated on DAPIneg). For analysis, CD206+/CD71+ and CD206+/CD301+ populations were gated based on Fluorescence Minus One (FMO) controls.
# BMDMs [2] = test: Basal mitochondrial respiration in intact BMDMs; format: cell-based, mouse
# Description: All respirometry studies were conducted in either a Seahorse XF96 or XFe96 Analyzer. All experiments were conducted at 37° C., and at pH 7.4 (intact cells) or 7.2 (permeabilized cells and isolated mitochondria). Calculation of respiratory parameters was made according to standard protocols (Divakaruni, A. S., Paradyse, A., Ferrick, D. A., Murphy, A. N., and Jastroch, M. (2014a) Analysis and interpretation of microplate-based oxygen consumption and pH data. Meth. Enzym 547, 509-54), and all rates were corrected for non-mitochondrial respiration/background signal by subtracting the oxygen consumption rate insensitive to rotenone plus antimycin A.
# Respiration in intact BMDMs was measured in medium containing 8 mM glucose, 2 mM glutamine, 2 mM pyruvate, and 5 mM HEPES. Cells were plated at 5.0×10^4 cells/well and assayed after 48 hr. When measuring the response to IL-4, cells were treated with 20 ng/mL of IL-4 24 hr. after initial plating, and respiration was measured the following day (˜48 hr after initial seeding). […]
# BMDMs [3] = test: Intracellular free coenzyme A levels in BMDMs; format: cell-based, mouse; conditions: IL-4
# Description: On Day 6 of differentiation, BMDMs were seeded at 1.2×10^6 cells/well in 6-well plates. 24 hr later, BMDMs were mock-treated or co-treated with 20 ng/mL IL-4±200 μM etomoxir±500 μM CoA in DMEM supplemented with 5% FBS, 2 mM L-glutamine, 100 units/mL, […] penicillin/streptomycin, 500 μM of sodium pyruvate and 5% v/v conditioned media containing macrophage colony stimulating factor (M-CSF) for 20 hr. Prior to sample collections, cells were washed with 600 μL of 0.9% (w/v) NaCl twice. Three wells per replicate per treatment were combined in 2 mL centrifuge tubes and centrifuged at 500 g for 5 mins at 4° C. The supernatant was removed, and the cell pellet was re-suspended in 75 μL of ice-cold 0.7% (v/v) perchloric acid for 5 min. Samples were then centrifuged at 10,000 g for 7 mins at 4° C. and the resulting supernatant was adjusted to pH 7 with 2M NaOH and 500 mM K2HPO4. The coenzyme A concentration was determined with Coenzyme A Assay Kit following manufacturer's instructions (Sigma MAK034) using 40 μL of sample supernatant. Coenzyme A levels were normalized to total cellular protein (BCA method).
# acute liver injury = test: Murine acute liver injury model; format: in vivo
# Limonoids sigmodontis = test: Murine model of nematode infection; conditions: mouse, in vivo
# diet-induced NASH = test: Rat model of diet-induced NASH; format: in vivo
# LCFA oxidation in BMDMs = test: 9,10-3H-palmitate oxidation (3H2O release) in BMDMs; format: cell-based, mouse; conditions: 200 nM rotenone or 200 nM antimycin A, IL-4-stimulated
# Description: BMDMs at day 6 of differentiation were seeded at 3×10^5 cells/well in 12 well plates in BMDM media. The next day, cells were treated in DMEM containing 25 mM glucose supplemented with 5% FBS, 2 mM L-Glutamax, 100 units/mL, 100 μg/mL penicillin/streptomycin, 1 mM of sodium pyruvate, 1 mM carnitine, and 5% v/v conditioned media containing macrophage colony stimulating factor (M-CSF) under one of 5 conditions: control, 20 ng/mL of IL-4±3 μM or 200 μM of etomoxir, or 200 nM rotenone, or 200 nM antimycin A for 24 hr. Fatty acid oxidation was measured 24 hours later as previously described (Rognstad, R. (1991) Estimation of peroxisomal and mitochondrial fatty acid oxidation in rat hepatocytes using tritiated substrates. Biochem J 279:147-150, 1991; Cha, B. S., Ciaraldi, T. P., Park, K. S., Carter, L., Mudaliar, S. R., and Henry R R. (2005) Impaired fatty acid metabolism in type 2 diabetic skeletal muscle cells is reversed by PPARgamma agonists. Am J Physiol Endocrinol Metab. 289, E151-9) following a fluid change to DMEM with components as described above except 10 mM glucose and 0.2 μCi (final concentration of 5 μM) BSA-conjugated [9,10-3H]palmitic acid. No additional IL-4 was added at the time of this fluid change, but etomoxir, rotenone and antimycin A were added, and the plates were placed in a […] incubator at 37° C. for 3 hr. After incubation, a 100 μL aliquot of the culture medium was passed over an ion-exchange resin, and the column was washed twice with 0.75 ml of water. Free fatty acids were retained by the resin, whereas the tritium hydrolyzed from radiolabeled palmitate catabolism was released as labeled water, which passes freely through the resin, and is subsequently counted for radioactivity. All data are corrected for protein content in each well. There were 3 technical replicates for each condition, and 4 biological replicates arising from 4 separate animals.
# [4] = system: Relma, Mgl2, Ym1, Fabp4, Arg1 expression; test: qPCR of IL-4-associated genes in BMDMs; format: cell-based, mouse; conditions: IL-4, 24 hr
# Description: as §1, §2, §3
# RNA was isolated with TRIzol, then cDNA was synthesized with high-capacity cDNA reverse transcription kit. KAPA SYBR FAST qPCR Master Mix kit and a LightCycler 480 were used for quantitative RT-PCR. Fold change related to the control group was calculated using […] with 36b4 as the reference gene.
# BMDMs [5] = test: Cellular ATP production rates from respirometry and lactate assay; format: cell-based, mouse; conditions: 200 nM rotenone, IL-4 24 hr
# Description: Respiration in intact BMDMs was measured in medium containing 8 mM glucose, 2 mM glutamine, 2 mM pyruvate, and 5 mM HEPES. Cells were plated at 5.0×10^4 cells/well and assayed after 48 hr. When measuring the response to IL-4, cells were treated with 20 ng/mL of IL-4 24 hr. after initial plating, and respiration was measured the following day (˜48 hr after initial seeding). Respiration was measured in response to oligomycin (1 μM), FCCP (1.2 μM), and rotenone (0.2 μM) with antimycin A (1 μM).
# Under conditions matching intact cell respirometry for BMDMs, the extracellular medium was harvested and lactate was analyzed as previously described (Mookerjee, S. A., Goncalves, R. L., Gerencser, A. A., Nicholls, D. G., and Brand, M. D. (2015). The contributions of respiration and glycolysis to extracellular acid production. Biochim et Biophys Acta. 1847, 171-81; Divakaruni, A. S., Wallace, M., Buren, C., Martyniuk, K., Andreyev, A. Y., Li, E., Fields, J. A., Cordes, T., Reynolds, I. J., Bloodgood, B. L., et al., (2017b) Inhibition of the mitochondrial pyruvate carrier protects from excitotoxic neuronal death. J. Cell Biol. 216, 1091-1105). […] The reaction velocity was measured after 2 min (340/460 nm excitation/emission). […]
# [6] = 500 μM CoA, absence of etomoxir
structure (smiles),measurement,setting,value
"CC(C)(COP(=O)(O)OP(=O)(O)OC[C@H]1O[C@@H](n2cnc3c(N)ncnc32)[C@H](O)[C@@H]1OP(=O)(O)O)[C@@H](O)C(=O)NCCC(=O)NCCS [CoA, [(2R,3S,4R,5R)-5-(6-aminopurin-9-yl)-4-hydroxy-3-phosphonooxy-oxolan-2-yl]methyl [hydroxy-[(3R)-3-hydroxy-2,2-dimethyl-4-oxo-4-[[3-oxo-3-(2-sulfanylethylamino)propyl]amino]butoxy]phosphoryl] hydrogen phosphate]",rescue of cell surface marker expression,"[1]; 200 μM etomoxir, varying CoA",concentration-dependent function of exogenously added CoA
same,reduction of CD206+/CD71+ cells upon etomoxir treatment,"[1]; 500 μM CoA with 200 μM etomoxir, IL-4",can be rescued
same,IL-4-induced expression of CD206 and CD71,[1]; [6],significantly increased
same,polarization,"[1]; CoA, absence of IL-4",no effect on polarization
same,etomoxir-induced reduction in CD206+/CD71+ cells,"[1]; LysM-Cre Cpt1a-/-, LysM-Cre Cpt2-/-, CD11c-Cre Cpt1a-/- BMDMs, 200 μM etomoxir, 500 μM CoA",could be rescued
same,basal respiration,"BMDMs [2]; CoA supplementation, BMDMs treated with excess etomoxir",did not alter basal respiration
same,oxygen consumption,BMDMs [2]; CoA with IL-4,does not enhance oxygen consumption
same,intracellular free CoA levels,BMDMs [3]; 500 μM CoA with 200 μM etomoxir,could be restored
same,intracellular free CoA levels,BMDMs [3]; [6],significantly increased
same,healing time and resolution of injury,acute liver injury; intravenous,decrease healing time and improve the extent of resolution from the injury
same,expression of alternative liver macrophage activation biomarkers,acute liver injury; peritoneal macrophages and/or Kupffer cells,Increased expression
same,parasite burden and replication,Limonoids sigmodontis,reduce parasite burden and replication
CC(CNC(=O)[C@H](O)C(C)(C)CO)C(=O)NCCc1ccccc1 (stereo partly drawn) [alpha-methyl-N-phenethyl-pantothenamide],expression of alternative macrophage activation biomarkers,diet-induced NASH; Kupffer cells and/or myeloid-derived precursors from the liver,Decreased expression
same,inflammation and fibrosis in the liver,diet-induced NASH; intravenous,reduce inflammation and fibrosis in the liver
C=C(C)[C@H]1Cc2c(ccc3c2O[C@@H]2COc4cc(OC)c(OC)cc4[C@@H]2C3=O)O1 [rotenone],"3H2O release from 9,10-3H-palmitate",LCFA oxidation in BMDMs,suppressed LCFA oxidation to levels in line with 200 μM etomoxir
same,population of CD206+/CD71+ cells,[1]; oxidative phosphorylation inhibitors co-treated with IL-4,none of the inhibitors of ATP synthesis or the electron transport chain significantly lowered
same,"IL-4-induced expression of Relma, Ym1, Mgl2",[4]; electron transport chain inhibitors,failed to reduce
same,expression of Ym1 and Arg1,[4]; mitochondrial inhibitors,increased expression
same,respiration at 24 hr,"BMDMs [2]; 1.2 μM oligomycin, 200 nM rotenone, 200 nM antimycin A, 100 nM piericidin A, 5 μM CAT",strongly reduced respiration
same,ATP production from oxidative phosphorylation,BMDMs [5],limited ATP production from oxidative phosphorylation
same,overall rates of energy metabolism (ATP production),BMDMs [5],maintain overall rates of energy metabolism
